These results are taken from ChEMBL document CHEMBL2040764, “Bioactive briarane diterpenoids from the South China Sea gorgonian Dichotella gemmacea” (Bioorg Med Chem Lett, 2012).

Experiment [1] has as its system Priestia megaterium. The experiment can be described thus: Antibacterial activity against Bacillus megaterium at 2 mg/ml by agar diffusion test. In kind it is functional, organism-based. A general note: Agar diffusion results depend on both activity and mobility in agar.
For experiment [2], the system named is Escherichia coli. The experiment is described as follows: Antibacterial activity against Escherichia coli at 2 mg/ml by agar diffusion test. To be noted: read-out: DIZ. In kind it is functional.
For experiment [3], the system named is Zymoseptoria tritici (Septoria tritici). The experiment is described as follows: Antifungal activity against Septoria tritici at 2 mg/ml by agar diffusion test. To be noted: read-out: DIZ.
The test system of experiment [4] is Microbotryum violaceum. The experiment can be described thus: Antifungal activity against Microbotryum violaceum at 2 mg/ml by agar diffusion test. The note with it: read-out: DIZ. In kind it is functional.
The next experiment deals with A549. The experiment can be described thus: Cytotoxicity against human A549 cells by MTT assay. In kind it is functional, cell-based. (Formazan colour is commonly taken as a measure of viable cells.)
For the next experiment, the system named is MG-63. The experiment is described as follows: Cytotoxicity against human MG63 cells by MTT assay. In kind it is functional, cell-based.
The test system of experiment [5] is Escherichia coli. The experiment can be described thus: Antibacterial activity against Escherichia coli at 0.05 mg by agar diffusion test. The note with it: read-out: DIZ. In kind it is functional.
The test system of another experiment is Zymoseptoria tritici. The experiment can be described thus: Antifungal activity against Septoria tritici at 0.05 mg by agar diffusion test. To be noted: read-out: DIZ.
Experiment [6] concerns Priestia megaterium. The experiment is described as follows: Antibacterial activity against Bacillus megaterium at 0.05 mg by agar diffusion test. In kind it is functional. The note with it: read-out: DIZ.
Experiment [7] concerns Microbotryum violaceum. The experiment is described as follows: Antifungal activity against Microbotryum violaceum at 0.05 mg by agar diffusion test. In kind it is functional. To be noted: read-out: DIZ.

Structures are written as SMILES. The source made the active and inactive calls. The calls are words filed in the database; no cut-off is given here.

As for `C=C1[C@H](OC(C)=O)C[C@H](OC(C)=O)[C@@]2(C)[C@@H](OC(C)=O)C[C@@H](OC(=O)CC(C)C)[C@]3(CO3)[C@@H]2[C@H](OC(C)=O)[C@]2(O)[C@@H](C)C(=O)O[C@H]2[C@H]1Cl` (relative stereo), the result in the experiment on Priestia megaterium [1] was inactive. Further, the zone of inhibition at 2000 µg/mL in the experiment with Escherichia coli [2] was found to be 19 mm; in experiment [3], 14 mm; in the experiment on Microbotryum violaceum [4] it was 14 mm. Moreover, the IC50 (in general, the concentration that gives 50% inhibition) is 16.9 µM with A549 and 18 µM with MG-63.
For the molecule `C=C1[C@H](OC(C)=O)C[C@H](OC(C)=O)[C@@]2(C)[C@@H](OC(=O)CC(C)C)C[C@@H](OC(C)=O)[C@]3(CO3)[C@@H]2[C@H](OC(C)=O)[C@]2(O)[C@@H](C)C(=O)O[C@H]2[C@H]1Cl` (relative stereo), the outcome in the experiment with Priestia megaterium [1] was inactive. Besides, the figures for the zone of inhibition at 2000 µg/mL (in the experiment on Escherichia coli [2]; in experiment [3]; in the experiment on Microbotryum violaceum [4]) were 20 mm, 9.5 mm and 9.5 mm, respectively. The figures for the IC50 in the experiment with A549 and in the experiment with MG-63 were 18 µM and 15.1 µM, respectively.
As for `C=C1[C@H](OC(C)=O)C[C@H](OC(C)=O)[C@@]2(C)[C@@H](OC(C)=O)C[C@@H](OC(C)=O)[C@]3(CO3)[C@@H]2[C@H](OC(C)=O)[C@]2(O)[C@@H](C)C(=O)O[C@H]2[C@H]1Cl` (relative stereo), the result with Priestia megaterium [1] was inactive. In addition, the zone of inhibition at 2000 µg/mL in the experiment with Escherichia coli [2] was found to be 20 mm; in [3] it was 13 mm; with Microbotryum violaceum [4] it was 11 mm. Besides, the values for the IC50 in the experiment with A549 and with MG-63 were < 1.5 µM and 20.5 µM, respectively.
Consider `C=C1[C@H](OC(=O)CC(C)C)C[C@H](OC(C)=O)[C@@]2(C)[C@@H](OC(C)=O)[C@@H](OC(=O)CC(C)C)[C@@H](OC(C)=O)[C@]3(CO3)[C@@H]2[C@H](OC(C)=O)[C@]2(O)[C@@H](C)C(=O)O[C@H]2[C@H]1Cl` (relative stereo), for which the result in the experiment with Priestia megaterium [1] was inactive. The zone of inhibition at 2000 µg/mL in the experiment on Escherichia coli [2] is 17 mm; in experiment [3] it was 17 mm; in the experiment on Microbotryum violaceum [4], 13 mm. In addition, the IC50 in the experiment on A549 turned out to be 19.1 µM; with MG-63, 17.4 µM.
`C=C1[C@H]2O[C@]3([C@@H](C)C(=O)O[C@H]3[C@H]1Cl)[C@@H](OC(C)=O)[C@H]1[C@@]3(CO3)[C@H](OC(C)=O)C[C@H](OC(C)=O)[C@]1(C)[C@@H](OC(C)=O)[C@H]2OC(C)=O` (relative stereo): in the experiment with Priestia megaterium [1], the result was inactive. Further, the zone of inhibition at 2000 µg/mL with Escherichia coli [2] turned out to be 20 mm; in [3], 12 mm; in the experiment with Microbotryum violaceum [4], 15 mm. The IC50 in the experiment with A549 and in the experiment on MG-63 was > 45.7 µM throughout.
For the molecule `C=C1[C@H]2O[C@]3([C@@H](C)C(=O)O[C@H]3[C@H]1Cl)[C@@H](OC(C)=O)[C@H]1[C@@]3(CO3)[C@H](OC(=O)CC(C)C)C[C@H](OC(C)=O)[C@]1(C)[C@@H](OC(C)=O)[C@H]2OC(C)=O` (relative stereo), the result in the experiment on Priestia megaterium [1] was inactive. Besides, the values for the zone of inhibition at 2000 µg/mL (with Escherichia coli [2]; in experiment [3]; in the experiment with Microbotryum violaceum [4]) were 34 mm, 13 mm and 11 mm, respectively. For the same molecule, the IC50 with A549 and with MG-63 was < 0.3 µM each time.
In the experiment with MG-63, `COc1cccc2c1C(=O)c1c(O)c3c(c(O)c1C2=O)C[C@@](O)(C(=O)CO)C[C@@H]3O[C@H]1C[C@H](N)[C@H](O)[C@H](C)O1` [DOXORUBICIN] showed an IC50 of 3.2 µM.
Take `C=C1CC[C@H](OC(C)=O)[C@@]2(C)[C@@H](OC(C)=O)C[C@@H](OC(=O)CC(C)C)[C@]3(CO3)[C@@H]2[C@H](OC(C)=O)[C@]2(O)[C@@H](C)C(=O)O[C@H]2[C@H]1Cl` [JUNCENOLIDE J]: in the experiment with Priestia megaterium [1], the outcome was inactive. In addition, the zone of inhibition at 2000 µg/mL came out at 11 mm with Escherichia coli [2], 12 mm in experiment [3] and 10 mm in the experiment with Microbotryum violaceum [4]. The IC50 with A549 and in the experiment with MG-63 was > 46.7 µM each time.
With `CC(=O)N1CCN(c2ccc(OCC3COC(Cn4ccnc4)(c4ccc(Cl)cc4Cl)O3)cc2)CC1` (stereo unspecified) [KETOCONAZOLE], the zone of inhibition at 50 µg/disc stood at 18 mm with Escherichia coli [5], 25 mm in the experiment on Zymoseptoria tritici, 18 mm in the experiment with Priestia megaterium [6] and 30 mm with Microbotryum violaceum [7].
With `CC1(C)S[C@@H]2[C@H](NC(=O)Cc3ccccc3)C(=O)N2[C@H]1C(=O)O` [PENICILLIN G], the zone of inhibition at 50 µg/disc in the experiment on Escherichia coli [5] is 26 mm; in the experiment with Zymoseptoria tritici it was 12 mm; in the experiment with Priestia megaterium [6] it was 18 mm; with Microbotryum violaceum [7] it was 14 mm.
Turning to `C=C1[C@H](Cl)[C@@H]2OC(=O)[C@H](C)[C@]23O[C@@H]1[C@H](OC(C)=O)[C@H](OC(C)=O)[C@@]1(C)[C@@H](OC(C)=O)CC[C@]2(CO2)[C@@H]1[C@@H]3OC(C)=O` [PRAELOLIDE], the result in the experiment with Priestia megaterium [1] was inactive. The zone of inhibition at 2000 µg/mL was 18 mm in the experiment on Escherichia coli [2], 15 mm in [3] and 11 mm in the experiment with Microbotryum violaceum [4]. For the same molecule, the IC50 in the experiment with A549 and in the experiment on MG-63 was > 50.1 µM in each case.
On to `CN[C@@H]1[C@H](O[C@H]2[C@H](O[C@H]3[C@H](O)[C@@H](O)[C@H](N=C(N)N)[C@@H](O)[C@@H]3N=C(N)N)O[C@@H](C)[C@]2(O)C=O)O[C@@H](CO)[C@H](O)[C@H]1O` [STREPTOMYCIN], for which the zone of inhibition at 50 µg/disc in the experiment on Escherichia coli [5] worked out at 18 mm; with Zymoseptoria tritici, 11 mm; in the experiment with Priestia megaterium [6], 11 mm; with Microbotryum violaceum [7], 16 mm.
